# Assay results from US20230123334A1, “AMINO LIPID COMPOUND, PREPARATION METHOD THEREFOR, AND APPLICATION THEREOF” (SHENZHEN SHENXIN BIOTECHNOLOGY CO., LTD., priority 2020, published 2023).
# Key:
# HEK293 cells [1] = assay: Preliminary screening as mRNA vectors, EGFP mRNA transfection of HEK293 cells; type: cell-based; conditions: HEK293 cells, 96-well plates, EGFP mRNA 50 ng per well; percentage of GFP fluorescent cells relative to total number of cells (Hoechst)
# Method in brief: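 HEK293 cells in DMEM plus 10% FBS transfected in 96-well format with 50 ng EGFP mRNA per well; Lipofectamine2000 served as positive control. Read-out is the percentage of GFP-fluorescent cells among total cells, counted by Hoechst nuclear stain.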
# HEK293 cells [2] = assay: Preliminary screening as DNA vectors, GFP transfection of HEK293 cells; type: cell-based; conditions: HEK293 cells; lipid/DOPE liposome with 75 ng plasmid DNA (psin-EGFP-IRES-Puro); number of cells expressing GFP divided by total number of nuclei (Hoechst)
# Method in brief: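 HEK293 cells in DMEM/10% FBS transfected with 75 ng EGFP plasmid per well complexed with amino lipid/DOPE liposomes in pH 5.6 sodium acetate. Hoechst nuclear stain added 20-24 h post-transfection, then cells cultured another 20-24 h. Confocal imaging gives GFP-positive cells as % of total nuclei.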
SMILES,Absolute mRNA transfection efficiency in HEK293 cells (HEK293 cells [1]),Absolute DNA transfection efficiency in HEK293 cells (HEK293 cells [2])
CCCCCCCCCCCCCCCCSc1nc(NCCCN2CCN(C)CC2)nc(SCCCCCCCCCCCCCCC)n1 [Compound S15S16D9],0.5%,0.3%
CCCCCCCCCCCCCCCCSc1nc(NCC2CCN(C)CC2)nc(SCCCCCCCCCCCCCCC)n1 [Compound S15S16D10],0.6%,0.6%
CCCCCCCCCCCCCCCCCCSc1nc(NCCN(C)C)nc(SCCCCCCCCCCCCCCC)n1 [Compound S15S18D1],0.0%,0.0%
CCCCCCCCCCCCCCCCCCSc1nc(NCCN2CCOCC2)nc(SCCCCCCCCCCCCCCC)n1 [Compound S15S18D2],0.5%,0.1%
CCCCCCCCCCCCCCCCCCSc1nc(NCCN2CCCC2)nc(SCCCCCCCCCCCCCCC)n1 [Compound S15S18D3],1.9%,2.6%
CCCCCCCCCCCCCCCCCCSc1nc(NCCN2CCCCC2)nc(SCCCCCCCCCCCCCCC)n1 [Compound S15S18D4],0.0%,0.3%
CCCCCCCCCCCCCCCCCCSc1nc(NCCN2CCN(C)CC2)nc(SCCCCCCCCCCCCCCC)n1 [Compound S15S18D5],0.4%,0.3%
CCCCCCCCCCCCCCCCCCSc1nc(NCCCN(C)C)nc(SCCCCCCCCCCCCCCC)n1 [Compound S15S18D6],0.0%,1.0%
CCCCCCCCCCCCCCCCCCSc1nc(NCCN(CC)CC)nc(SCCCCCCCCCCCCCCC)n1 [Compound S15S18D7],9.3%,1.5%
CCCCCCCCCCCCCCCCCCSc1nc(NCCCN2CCOCC2)nc(SCCCCCCCCCCCCCCC)n1 [Compound S15S18D8],0.5%,0.0%
CCCCCCCCCCCCCCCCCCSc1nc(NCCCN2CCN(C)CC2)nc(SCCCCCCCCCCCCCCC)n1 [Compound S15S18D9],0.0%,0.3%
CCCCCCCCCCCCCCCCCCSc1nc(NCC2CCN(C)CC2)nc(SCCCCCCCCCCCCCCC)n1 [Compound S15S18D10],1.8%,0.3%
CCCCCCCCCCCCCCCCSc1nc(NCCN(C)C)nc(SCCCCCCCCCCCCCCCC)n1 [Compound S16S16D1],0.4%,0.6%
CCCCCCCCCCCCCCCCSc1nc(NCCN2CCOCC2)nc(SCCCCCCCCCCCCCCCC)n1 [Compound S16S16D2],0.2%,1.1%
CCCCCCCCCCCCCCCCSc1nc(NCCN2CCCC2)nc(SCCCCCCCCCCCCCCCC)n1 [Compound S16S16D3],0.8%,0.9%
CCCCCCCCCCCCCCCCSc1nc(NCCN2CCCCC2)nc(SCCCCCCCCCCCCCCCC)n1 [Compound S16S16D4],2.2%,1.2%
CCCCCCCCCCCCCCCCSc1nc(NCCN2CCN(C)CC2)nc(SCCCCCCCCCCCCCCCC)n1 [Compound S16S16D5],0.7%,0.0%
CCCCCCCCCCCCCCCCSc1nc(NCCCN(C)C)nc(SCCCCCCCCCCCCCCCC)n1 [Compound S16S16D6],0.5%,0.5%
CCCCCCCCCCCCCCCCSc1nc(NCCN(CC)CC)nc(SCCCCCCCCCCCCCCCC)n1 [Compound S16S16D7],0.0%,0.5%
CCCCCCCCCCCCCCCCSc1nc(NCCCN2CCOCC2)nc(SCCCCCCCCCCCCCCCC)n1 [Compound S16S16D8],1.7%,0.0%
CCCCCCCCCCCCCCCCSc1nc(NCCCN2CCN(C)CC2)nc(SCCCCCCCCCCCCCCCC)n1 [Compound S16S16D9],0.2%,0.5%
CCCCCCCCCCCCCCCCSc1nc(NCC2CCN(C)CC2)nc(SCCCCCCCCCCCCCCCC)n1 [Compound S16S16D10],2.7%,0.1%
CCCCCCCCCCCCCCCCCCSc1nc(NCCN(C)C)nc(SCCCCCCCCCCCCCCCC)n1 [Compound S16S18D1],2.1%,1.2%

SMILES,Absolute mRNA transfection efficiency in HEK293 cells (HEK293 cells [1]),Absolute DNA transfection efficiency in HEK293 cells (HEK293 cells [2])
CCCCCCCCCCCCCCCCCCSc1nc(NCCN2CCOCC2)nc(SCCCCCCCCCCCCCCCC)n1 [Compound S16S18D2],0.0%,0.0%
CCCCCCCCCCCCCCCCCCSc1nc(NCCN2CCCC2)nc(SCCCCCCCCCCCCCCCC)n1 [Compound S16S18D3],1.8%,1.9%
CCCCCCCCCCCCCCCCCCSc1nc(NCCN2CCCCC2)nc(SCCCCCCCCCCCCCCCC)n1 [Compound S16S18D4],0.3%,0.3%
CCCCCCCCCCCCCCCCCCSc1nc(NCCN2CCN(C)CC2)nc(SCCCCCCCCCCCCCCCC)n1 [Compound S16S18D5],0.3%,1.7%
CCCCCCCCCCCCCCCCCCSc1nc(NCCCN(C)C)nc(SCCCCCCCCCCCCCCCC)n1 [Compound S16S18D6],1.8%,0.2%
CCCCCCCCCCCCCCCCCCSc1nc(NCCN(CC)CC)nc(SCCCCCCCCCCCCCCCC)n1 [Compound S16S18D7],1.8%,1.0%
CCCCCCCCCCCCCCCCCCSc1nc(NCCCN2CCOCC2)nc(SCCCCCCCCCCCCCCCC)n1 [Compound S16S18D8],1.9%,0.3%
CCCCCCCCCCCCCCCCCCSc1nc(NCCCN2CCN(C)CC2)nc(SCCCCCCCCCCCCCCCC)n1 [Compound S16S18D9],0.5%,0.4%
CCCCCCCCCCCCCCCCCCSc1nc(NCC2CCN(C)CC2)nc(SCCCCCCCCCCCCCCCC)n1 [Compound S16S18D10],3.0%,0.8%
CCCCCCCCCCCCCCCCCCSc1nc(NCCN(C)C)nc(SCCCCCCCCCCCCCCCCCC)n1 [Compound S18S18D1],0.0%,0.0%
CCCCCCCCCCCCCCCCCCSc1nc(NCCN2CCOCC2)nc(SCCCCCCCCCCCCCCCCCC)n1 [Compound S18S18D2],0.1%,0.0%
CCCCCCCCCCCCCCCCCCSc1nc(NCCN2CCCC2)nc(SCCCCCCCCCCCCCCCCCC)n1 [Compound S18S18D3],0.1%,0.1%
CCCCCCCCCCCCCCCCCCSc1nc(NCCN2CCCCC2)nc(SCCCCCCCCCCCCCCCCCC)n1 [Compound S18S18D4],0.1%,0.1%
CCCCCCCCCCCCCCCCCCSc1nc(NCCN2CCN(C)CC2)nc(SCCCCCCCCCCCCCCCCCC)n1 [Compound S18S18D5],0.1%,0.1%
CCCCCCCCCCCCCCCCCCSc1nc(NCCCN(C)C)nc(SCCCCCCCCCCCCCCCCCC)n1 [Compound S18S18D6],0.5%,0.2%
CCCCCCCCCCCCCCCCCCSc1nc(NCCN(CC)CC)nc(SCCCCCCCCCCCCCCCCCC)n1 [Compound S18S18D7],0.0%,0.2%
CCCCCCCCCCCCCCCCCCSc1nc(NCCCN2CCOCC2)nc(SCCCCCCCCCCCCCCCCCC)n1 [Compound S18S18D8],0.0%,0.0%
CCCCCCCCCCCCCCCCCCSc1nc(NCCCN2CCN(C)CC2)nc(SCCCCCCCCCCCCCCCCCC)n1 [Compound S18S18D9],0.1%,0.9%
CCCCCCCCCCCCCCCCCCSc1nc(NCC2CCN(C)CC2)nc(SCCCCCCCCCCCCCCCCCC)n1 [Compound S18S18D10],0.0%,0.0%
CCCCCCCCCCCCN(CCCCCCCCCCCC)c1nc(NCCCCCC)nc(NCCN(C)C)n1 [N6^2N12D1],0.0%,0.6%
CCCCCCCCCCCCN(CCCCCCCCCCCC)c1nc(NCCCCCC)nc(NCCN2CCOCC2)n1 [N6^2N12D2],0.0%,0.2%
CCCCCCCCCCCCN(CCCCCCCCCCCC)c1nc(NCCCCCC)nc(NCCN2CCCC2)n1 [N6^2N12D3],0.1%,0.4%
